Experimental data taken from PubChem BioAssay (NCI).
“And” between values parts separate entries of the source, which are not always exact repeats. Equal values may be shown once.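 Where inhibition never reached the appropriate level, the endpoint shown equals the highest concentration tested. Otherwise, values were interpolated linearly from a five-concentration, 48-hour dose response in 96-well plates. GI50 is the concentration that inhibits growth by half. TGI marks complete inhibition of growth.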

Legend:
Experiment in all cases: NCI tumour cell line growth inhibition, 48 h
DMS 114 small cell lung = tested on: DMS 114 small cell lung
DLD-1 colon = tested on: DLD-1 colon
KM20L2 colon = tested on: KM20L2 colon
M19-MEL melanoma = tested on: M19-MEL melanoma
SNB-78 CNS = tested on: SNB-78 CNS
DMS 273 small cell lung = tested on: DMS 273 small cell lung
HOP-18 NSCLC = tested on: HOP-18 NSCLC
RXF-631 renal = tested on: RXF-631 renal
MDA-N = tested on: MDA-N
SN12K1 renal = tested on: SN12K1 renal
P388 leukemia = tested on: P388 leukemia

| SMILES | TGI (DMS 114 small cell lung) [µM] | TGI (DLD-1 colon) [µM] | TGI (KM20L2 colon) [µM] | TGI (M19-MEL melanoma) [µM] | TGI (SNB-78 CNS) [µM] | TGI (DMS 273 small cell lung) [µM] | TGI (HOP-18 NSCLC) [µM] | TGI (RXF-631 renal) [µM] | TGI (MDA-N) | other results |
| --- | --- | --- | --- | --- | --- | --- | --- | --- | --- | --- |
| C/C(CC(=O)Nc1ccc(NC(=O)/C(C)=N/NS(=O)(=O)c2ccc(C)cc2)cc1)=N\NS(=O)(=O)c1ccc(C)cc1 | > 100 | > 100 | > 100 | > 100 | > 100 | – | – | – | – | – |
| CC(=O)[CH-]C(=O)c1ccccc1.CC(=O)[CH-]C(=O)c1ccccc1.CC[O-].O=C1C=C([O-])C(=O)c2ccccc21.[Ti+4] | – | > 100 | > 100 | – | – | > 100 | > 100 | – | – | GI50 (DLD-1 colon): > 100 µM; GI50 (KM20L2 colon): 42.4 µM; GI50 (DMS 273 small cell lung): 96.4 µM; GI50 (HOP-18 NSCLC): 95.4 µM |
| O/N=C1/C(=C/c2ccc(Cl)cc2)CCCC1C(NO)c1ccc(Cl)cc1 (stereo unspecified) | 81.8 | > 100 | 36.6 | 54.7 | 48.5 | 41.2 | 55.1 | 41 | – | – |
| CCCCCC/C=C\CCCCCCCCCc1c(O)c(OC)cc(O)c1CN(C)C | – | – | – | – | – | – | – | – | 32.2 µM | – |
| CCc1c(-c2coc(CC/C(C)=C/c3ccccc3)n2)oc(OC)c(C)c1=O | 29.2 | > 65.6 | > 54.6 | > 100 | > 100 | > 54.7 | > 100 | – | – | – |
| Cn1c(=O)c2[nH]cnc2n(CC(=O)O)c1=O | > 100 | > 100 | > 100 | > 100 | > 100 | > 100 | – | > 100 | – | – |
| N#CNc1nc(C(=O)Nc2ccc(Cl)cc2)cc(-c2ccccc2)n1 | > 100 | > 100 | > 100 | > 100 | > 100 | > 100 | > 100 | > 100 | – | – |
| COC(=O)C1CCC(N2C(=O)CCC2C(=O)OC)=N1 (stereo unspecified) | – | > 100 | > 100 | > 100 | > 100 | > 100 | > 100 | > 100 | – | – |
| O=c1cc(-c2ccc[nH]2)[nH]c2cc3c(cc12)OCO3 | > 100 | > 100 | 42.6 | > 100 | – | > 100 | – | > 100 | – | GI50 (DMS 114 small cell lung): 32.5 µM; GI50 (KM20L2 colon): 20.1 µM |
| Cc1cccc(NC(=O)Cc2nc3ccccc3s2)c1C | > 100 | > 100 | > 100 | > 100 | – | > 100 | – | > 100 | – | – |
| O=C1c2c(O)cccc2C(C(=O)CCCC(=O)C2c3cccc(O)c3C(=O)c3c(O)cccc32)c2cccc(O)c21 | 0.502 | 7 | 8.68 | 4.17 | 0.785 | 1.26 | 0.828 | 3.99 | 3.39 µM | – |
| COc1cc(C(=C2SCCS2)c2nccc3cc(OC)c(OC)cc23)c([N+](=O)[O-])cc1OC | > 100 | > 100 | > 100 | > 100 | > 100 | > 100 | > 100 | – | – | – |
| O=C(Nc1ccccc1)OCc1nc2c([nH]1)C(=O)C=CC2=O | – | > 100 | 41 | 29.5 | 45.3 | 42 | 23 | – | – | – |
| CC(=O)OC1C/C(C)=C/[C@H](O)CC(C)/C=C/[C@@]2(C)CCC(C(C)(C)O)C12 (stereo partly specified) | > 100 | > 100 | > 100 | > 100 | > 100 | > 100 | > 100 | > 100 | – | – |
| CCc1ccccc1NC(=O)C1=C(C)NC(C)=C(C(=O)Nc2ccccc2CC)C1c1ccc(NC(C)=O)cc1 | > 100 | 87.6 | 58.8 | > 100 | 82.1 | – | – | – | – | – |
| C=CC1=C(C)C(Cc2[nH]c(/C=c3\[nH]/c(=C/C4=NC(=O)C(C)/C4=C\C)c(C)c3CCC(=O)O)c(CCC(=O)OC)c2C)NC1=O (stereo unspecified) | – | – | – | – | – | – | – | – | 66.7 µM | GI50 (MDA-N): 25.6 µM |
| CN1CCN(c2ccc([N+](=O)[O-])c3no[n+]([O-])c23)CC1 | – | – | – | – | – | – | – | – | 2.74 µM | – |
| C=C(C)C(=O)N1c2ccc(OC)cc2CC1C(=O)OCC (stereo unspecified) | – | – | – | – | – | – | – | – | > 100 µM | – |
| CC(C)c1ccc(O)c(O)c(=O)c1 (tested in a mixture with another compound) | – | – | – | – | – | – | – | – | > 100 µM | – |
| Cc1cccc2cc3ccc4ccccc4c3cc12 | – | – | – | – | – | – | – | – | > 100 µM | – |
| [N-]=[N+]=NC(c1cn(C2CC(O)C(CO)O2)c(=O)[nH]c1=O)C(I)I (stereo unspecified) | > 100 | > 100 | > 100 | > 100 | > 100 | > 100 | > 100 | – | – | – |
| COc1ccc(CC(C#N)c2cc(OC)c(OC)c(OC)c2)cc1 (stereo unspecified) | – | > 100 | 0.195 | > 100 | > 100 | 0.405 | – | – | – | – |
| O=C(O)CCc1nc(-c2ccccc2)c(-c2ccccc2)o1 | – | – | – | – | – | – | – | – | > 100 µM | – |
| CCC(C)c1cnc(CC(C)C)c(=O)[nH]1 (stereo unspecified) | – | – | – | – | – | – | – | – | > 100 µM | – |

| SMILES | TGI (DMS 114 small cell lung) [µM] | TGI (DLD-1 colon) [µM] | TGI (KM20L2 colon) [µM] | TGI (M19-MEL melanoma) [µM] | TGI (SNB-78 CNS) [µM] | TGI (DMS 273 small cell lung) [µM] | TGI (HOP-18 NSCLC) [µM] | TGI (RXF-631 renal) [µM] | TGI (MDA-N) | other results |
| --- | --- | --- | --- | --- | --- | --- | --- | --- | --- | --- |
| c1cc(C2N3CCCN2CC3)ccn1 (stereo unspecified) | – | – | – | – | – | – | – | – | > 100 µM | – |
| CN(C(=O)C1CC1)C1C2CN3CCC(O2)C13 (stereo unspecified) | > 100 | > 100 | > 100 | > 100 | > 100 | > 100 | > 100 | – | – | – |
| C=CC[C@@]1(C#N)C[C@H](C[C@]2(C#N)C[C@H](CCl)OC(C)(C)O2)OC(C)(C)O1 | > 100 | > 100 | > 100 | > 100 | – | > 100 | > 100 | – | – | – |
| NC(=O)C12CCC1C1CCCCC12N1CCOCC1 (stereo unspecified) | – | > 100 | > 100 | > 100 | > 100 | – | > 100 | > 100 | – | – |
| CC(=O)Oc1cc(OC(C)=O)c2cc3c(cc2c1OC(C)=O)C(=O)C1(CCCC1)C3=O | 31.6 | 37 | 46.3 | 32 | 50 | 35.8 | 38.5 | – | – | – |
| c1ccc([P+](CCC[P+](c2ccccc2)(c2ccccc2)c2ccccc2)(c2ccccc2)c2ccccc2)cc1 | 71 | > 100 | > 100 | > 100 | > 100 | 47.9 | > 100 | > 100 | – | – |
| Cc1ccc(C(=O)NC(C)C)cc1N=NN(C)C | – | > 100 | > 100 | > 100 | > 100 | > 100 | – | – | – | – |
| O=C(Cc1nc2ccccc2s1)C(=O)Nc1ccc(Cl)cc1Cl | – | > 100 | > 100 | > 100 | > 100 | > 100 | – | > 100 | – | – |
| CC(C)(C)[Si](Nc1ccccc1)(c1ccccc1)c1ccccc1 | 26.3 | – | 31.7 | 28.4 | 30.4 | 27.3 | 26.7 | 29.6 | – | – |
| CC(C)[C@H](O)C(=O)N[C@H]1Cc2ccc3c(c2)[C@]24C5=C(N=C(O5)[C@H](C(C)C)NC1=O)c1nc(Cl)c(o1)-c1c(Cl)[nH]c5cccc(c15)-c1cccc2c1N[C@H]4O3 | – | – | – | – | – | – | – | – | 0.00429 µM | – |
| O=C(Cc1ccccc1)NN1C(=O)C(Cl)C1c1ccccc1 (stereo unspecified) | > 100 | > 100 | > 100 | > 100 | > 100 | – | > 100 | – | – | – |
| CCCCc1oc2ccccc2c1C(=O)c1cc(I)c(OCCN(CC)CC)c(I)c1 | – | 54.1 | – | – | 25 | 7.74 | 1.29 | – | – | TGI (SN12K1 renal): 7.45 µM; TGI (P388 leukemia): 11.2 µM |
| COC(=O)NN=C1C(C)(C)C(=NNC(=O)OC)C1(C)C | > 56.7 | > 100 | > 100 | > 63.3 | > 100 | > 100 | > 100 | > 100 | – | – |
| CO[C@@]12[C@H](COC(N)=O)C3=C(C(=O)C(C)=C(N)C3=O)N1C[C@@H]1N[C@@H]12 | 5.08 | 17.2 | 10.2 | – | – | 3.6 | 7.59 | – | 7.44 µM and 19.1 µM | TGI (SN12K1 renal): 7.65 µM; GI50 (MDA-N): 2.11 µM and 2.67 µM; TGI (P388 leukemia): 9.62 µM |
| CN(C)NC(=S)NC12CC3CC(CC(C3)C1)C2 | > 100 | > 100 | > 100 | > 100 | > 100 | > 100 | > 100 | – | – | – |
| CCOC(CN(C)C(=O)OCC(Cl)(Cl)Cl)OCC | – | – | – | – | – | – | – | – | > 100 µM | – |
| C/C=C/COc1cc(NC(=S)c2ccoc2C)ccc1OC | – | – | – | – | – | – | – | – | > 100 µM | – |
| C[n+]1ccc2[nH]c3ccccc3c2c1 | – | > 100 | > 100 | > 100 | > 100 | > 100 | > 100 | – | – | – |
| NC(N)=N/N=C(/c1ccccc1)c1ccc(O)cc1O | – | – | – | – | – | – | – | – | 28.6 µM | – |
| COC(=O)c1cccc2c1Oc1ccccc1S2 | – | – | – | – | – | – | – | – | > 100 µM | – |
| CCCCCC/C=C/CCCCCCCc1cccc(O)c1C(=O)O | > 100 | > 100 | > 100 | > 100 | > 100 | > 100 | > 100 | > 100 | – | – |
| O=C(Nc1cc([N+](=O)[O-])cc([N+](=O)[O-])c1)OC1C2CCC1C1OC1C2 (stereo unspecified) | > 50 | > 50 | > 50 | > 50 | > 50 | – | – | – | – | – |
| CCC[CH2][Sn]1([CH2]CCC)[O]CC([CH2][Sn]([c]2ccccc2)([c]2ccccc2)[c]2ccccc2)[O]1 (stereo unspecified) | 13.5 | 18.4 | – | 21.2 | 26.4 | – | 25.2 | 30.5 | – | GI50 (DMS 114 small cell lung): 3.18 µM; GI50 (DLD-1 colon): 5.92 µM; GI50 (M19-MEL melanoma): 8.82 µM; GI50 (HOP-18 NSCLC): 12.7 µM; GI50 (RXF-631 renal): 10.7 µM; GI50 (SNB-78 CNS): 10.2 µM |
| CN(/C(=N\O)c1ccccc1)c1ccccc1 | 86.1 | > 100 | 41.5 | > 100 | 88.7 | 50.7 | – | – | – | – |
